Assay results published in patent US20240173325A1, “METHODS FOR TREATING SPINAL MUSCULAR ATROPHY” (Genentech, Inc., priority 2022, published 2024).

How the values were obtained:
[1] = system: SMN protein; assay: SMN protein levels in whole blood (Roche Elecsys immunoassay); type: in vivo, human
Method: Table 7A and Table 7B presents SMN protein levels in whole blood (measured in ng/mL) in the carrier and the subject as the fetal subject and the neonatal subject of this Example, and reference values are shown in Table 7C below. Table 7B is a continuation of Table 7A from 32.5 weeks gestation prior to administration of risdiplam to the carrier through 43 days post-delivery. SMN protein levels in the whole blood were performed using an immunoassay developed by Roche Diagnostics on the Elecsys® platform.

[2] = system: neonatal subject; assay: Clinical assessments of the neonatal subject (physical/neurologic exam, CHOP INTEND, HINE-2, Bayley-4, OrSAT, ultrasound); type: in vivo, human; details: for CHOP INTEND: highest possible score 64; for Oral-motor assessment (OrSAT): maximum score 7
Method: Following birth, the neonatal subject, approximately one week and again at approximately six weeks of age, was assessed using the Hammersmith Infant Neurological Exam (HINE), Bayley Scales of Infant and Toddler Development, 4th edition (“Bayley™-4), the Children's Hospital of” Philadelphia Infant Test of Neuromuscular Disorders (CHOP INTEND), the Oral and Swallowing Abilities Tool (OrSAT), respiratory inductance plethysmography (RIP), a complete physical examination, anthropometric measurements (including vital signs, length, weight, head circumference and chest circumference), nerve conduction testing (specifically compound muscle action potential (CMAP) and motor unit number estimation (MUNE)), an ultrasound of the brain and muscles, blood and urine collection for CBC, CMP, U/A, and risdiplam PK/PD. The CBC, CMP, and U/A could be repeated at six weeks if the neonatal subject had not initiated any SMN-directed therapies, if there was a clinical indication upon physical examination, or if the one-week labs had clinically significant abnormal results.
The maximum score for the HINE-2 is 26 points, with a higher score reflecting a higher function, respectively.
Bayley™-4 is a comprehensive assessment tool for determining developmental delays in high-risk neonatal subjects. See Bayley & Aylward (2019) Bayley Scales of Infant and Toddler Development (4th ed.) technical manual. Bloomington, MN: NCS Pearson. Bayley™-4 scores from an assessment of early childhood development. Specifically, Bayley™-4 tests developmental skills such as cognitive, language, and motor skills of the neonatal subject. The scores represent how well the neonatal subject performed in these areas as compared to a group of neonatal subjects in the same age range. The Bayley™-4 mean standard score is 100 and the standard deviation is 15.
In Table 6, “CHOP INTEND” refers to a test that provides information about how strong the neonatal subject's muscles are and how well the neonatal subject can control his/her muscles. During the CHOP INTEND examination, a health care provider measures 16 types of muscle movements, which include head control (keeping the head upright), elbow flexion and knee extension (bending the joints), arm and leg mobility, and handgrip. […] All of the CHOP INTEND scores add up to one total score, with the highest possible score for the CHOP INTEND test being 64. With a score of 50 at 6 weeks and a score of 55 at 18 weeks, the neonatal subject was considered to be normal.
“OrSAT” or “Oral and Swallowing Abilities Tool” is a tool specifically designed to record structured information on different aspects related to oral, swallowing and feeding abilities in patients with type 1 SMA. See Berti (2022) Arch. Dis. Child. archdischild-2022-323899. Specifically, OrSAT includes several questions, where the responses are graded using a scoring system: each item is scored as 0 or 1 depending if the patient is able or unable to perform a given activity. Since some items are age-dependent, the number of items and the maximal score increases with an increasing age. If the neonatal subject younger than 6 months of age who cannot be assessed on swallowing semisolids or solids, the maximum score is 7, whereas if the neonatal subject is between 6 and 9 months of age, who can be assessed on this criteria, the maximum score is 10. If the neonatal subject is 10 months of age or older and can be assessed for all food consistencies, including solids, the maximum total score is 12. See Berti (2021) J. Neuromuscul. Dis. 8(4):589-601.
Muscle ultrasound was performed using a 11-mHz-linear array transducer (60 mm width) in B-mode (GE Vivid E95; GE, Chicago, IL, USA) to evaluate for muscle fasciculation in the right and left biceps, the abductor digiti minimi muscle, the quadriceps, the transverse abdominal muscle, the gastrocnemius-soleus, the lumbar paraspinals and the tongue. Thickness of the quadriceps muscle was measured. […]

[3] = system: rat fetuses; details: dams treated at about 1 mg/kg/day to about 7.5 mg/kg/day; cited from earlier work

Ultrasound studies Neurosonogram Muscle ([2]; 1 week): normal
General Physical Exam ([2]; 1 week to 18 weeks): Heart murmur (VSD)
Mental status ([2]; 2 weeks to 2 months): Somnolent and fussy
Ultrasound studies Neurosonogram Muscle ([2]; 6 weeks): normal
Ultrasound studies Neurosonogram Muscle ([2]; 18 weeks): normal
APGAR score ([2]; 1 minute): APGAR scores: 7
APGAR score ([2]; 5 minutes): minute), 8 (5 minutes)
Growth (weight gain) ([2]; after 2 months): Normal after
Mental status ([2]; after 2 months): Normal after
General Physical Exam ([2]; birth to 1 week): Respiratory distress
Mental status ([2]; birth to 1 week): Normal
Ultrasound studies Neurosonogram Muscle ([2]; birth to 1 week (DOL2)): normal DOL2
Compound: Cc1cn2nc(-c3cc(=O)n4cc(N5CCNC6(CC6)C5)ccc4n3)cc(C)c2n1 [risdiplam, 7-(4,7-diazaspiro[2.5]octan-7-yl)-2-(2,8-dimethylimidazo[1,2-b]pyridazin-6-yl)-4H-pyrido[1,2-a]pyrimidin-4-one]
SMN protein level in whole blood relative to reference amounts ([1]; at d0, versus reference study (FIG. 2)): about two
SMN protein level in whole blood ([1]; carrier, 32.5 WG (pre-risdiplam)): 7.7 ng/mL
SMN protein level in whole blood ([1]; carrier, 36 WG): 6.3 ng/mL
SMN protein level in whole blood ([1]; carrier, 38 WG): 6.0 ng/mL
SMN protein level in whole blood ([1]; carrier, birth 38.5 WG): 4.0 ng/mL
SMN protein level in whole blood ([1]; carrier, d 20 post birth): 5.0 ng/mL
SMN protein level in whole blood ([1]; carrier, d 29 post birth): 5.1 ng/mL
SMN protein level in whole blood ([1]; carrier, d 43 post birth): 4.6 ng/mL
Decline of SMN protein level ([1]; carrier, from prenatal treatment until delivery): 48%
Increase of SMN protein level ([1]; carrier, postpartum period): 15-28%
Increase of SMN protein level ([1]; neonatal subject, at d43 following drug initiation on d8): 36%
SMN protein level in whole blood ([1]; neonatal subject, birth 38.5 WG (cord)): 9.4 ng/mL
SMN protein level in whole blood ([1]; neonatal subject, d 8, no drug since birth): 4.5 ng/mL
SMN protein level in whole blood ([1]; neonatal subject, d 43, oral 0.15 mg/kg/day from d8): 6.1 ng/mL
Neurologic Exam ([2]; 1 week to 18 weeks): Normal, age-appropriate tone, posture,
CHOP INTEND ([2]; 1 week): 46
Oral-motor assessment (OrSAT) ([2]; 1 week): 7
CHOP INTEND ([2]; 6 weeks): 50
Oral-motor assessment (OrSAT) ([2]; 6 weeks): 7
Bayley-4 Adaptive Behavior ([2]; 18 weeks): Behavior: 89
Bayley-4 Cognitive ([2]; 18 weeks): Cognitive: 95
Bayley-4 Communication ([2]; 18 weeks): Communication: 103
Bayley-4 Social ([2]; 18 weeks): Social: 95
Oral-motor assessment (OrSAT) ([2]; 18 weeks): 7
HINE-2 ([2]; 18 weeks, maximum score 26): 8
Bayley-4 Motor ([2]; 18 weeks, mean standard score 100, SD 15): Motor: 101
Neurologic Exam ([2]; birth to 1 week): Normal, age- appropriate
Findings in rat fetuses [3]: weight loss and minor differences in skeletal ossification
